Test results: US10683273B2, “Compounds as DNA probes, methods and applications thereof” (JAWAHARLAL NEHRU CENTRE FOR ADVANCED SCIENTIFIC RESEARCH, priority 2015, dated 2020)

Experiments:
[1] = system: DNA; test: Stokes shift from absorption and emission spectra, in presence of DNA; format: physicochemical; conditions: present disclosure
Experimental: The UV-vis absorption and emission spectra are recorded on Agilent Technologies Cary series UV-vis-NIR absorbance and Cary eclipse fluorescence spectrophotometers, respectively. Thermal denaturation (UV-melting) studies are carried out on Cary 5000 UV-vis-NIR spectrophotometer equipped with Cary temperature controller in the range of 10° C. to 90° C. with a ramp rate of 1° C./min. The variable temperature/wavelength mode is used. Absorption is monitored at 260 nm with regular 5° C. intervals. Melting temperatures (Tm) of DNA samples are calculated from the first derivatives of the absorption vs. temperature curves (thermal denaturation or melting curves) obtained by monitoring at 260 nm.
The molecular interactions of QCy-DT is studied by evaluating the absorption and emission properties in Tris-buffer (100 mM, pH=7.4) under ambient conditions. […] The NIR-fluorescence of QCy-DT arises due to extended through the Cy7 backbone and ICT process. The weak or non-fluorescent behavior of dye molecules in buffer solution is mainly attributed to the intramolecular twisting processes, which cause quenching of the fluorescence of cyanine dyes, solvation with water molecules also aids the fluorescence quenching by means of deactivation of […]. […]

[2] = system: P. falciparum strain 3D7; test: Live fluorescence imaging of malaria parasites; format: cell-based, Plasmodium falciparum; conditions: 0.5 μM, early trophozoite stage, 30 min
Experimental: P. falciparum strain 3D7 is cultured. Briefly, malaria parasites are cultured in human erythrocytes in T75 flasks with RPMI 1640 (Gibco) supplemented with 10 μg/mL gentamicin (Sigma), 50 μg/mL ampicillin, 0.2% NaHCO3 (Sigma), 0.5% albumax (Invitrogen) and Hypoxanthine (27 mg/L). The culture is maintained under standard conditions (37° C. in 90% nitrogen, 5% CO2, and 5% O2). For synchronization of the parasites, ring-staged parasites are treated with 5% sorbitol at 37° C. for about 5-10 min, followed by washing with pre-warmed incomplete medium twice, and placed back in complete medium. QCy-DT probe (resuspended in Mili-Q water) is added to parasites (25±2 hpi) at a final concentration of 0.5 μM and the parasites are incubated for 30 min at 37° C. Following treatment fluorescence imaging of the parasites is performed using Carl Zeiss AXIO Imager Z1 and the software used for image capturing was AxioVision Rel. 4.8.

[3] = system: MCF-7 cells; test: Fluorescence study in live cells; format: cell-based; conditions: live MCF-7 cells, 0.5 and 1 μM, 60 min
Experimental: MCF-7 cells are propagated on 20 mm cover slips in a 6-well plate in DMEM medium supplemented with 10% fetal bovine serum at about 37° C. in a humidified atmosphere containing 5% CO2 till 80% confluency is achieved. Cells are incubated for about 60 min with probe QCy-DT (resuspended in Mili-Q water) at various concentrations (0.5 μM and 1 μM) in a humidified CO2 incubator at about 37° C. Milli-Q water is used as a vehicle control. Following the treatment, fluorescence microscopy is performed using Carl Zeiss AXIO Imager Z1 and the software used for image capturing is AxioVision Rel. 4.8.
In order to check its permeability, cellular uptake studies are carried out in live and fixed conditions of MCF-7 and HeLa cells, respectively. First, MCF-7 cells are incubated with probe QCy-DT (0.5 and 1 μM) without fixing, and live cell imaging is conducted using Carl Zeiss fluorescence microscope as described above. […] Next, HeLa cells are fixed and incubated with QCy-DT (0.5 and 1 μM) along with Hoechst as the control nuclear staining dye. […] Therefore, staining results obtained with live and fixed cells confirmed high cell permeability, efficiency (low staining concentration of 1 μM), and preferential targeting of cell nuclear DNA.

[4] = Fluorescence quantum yield in absence of DNA; format: physicochemical
Experimental: Cresyl violet perchlorate in ethanol (ϕ=0.54) is used as the standard for the fluorescence quantum yield calculation using the absorption of the test sample. The emission spectral area is obtained in the 550-800 nm regions. Dilute solutions (10^−6 M) are used to minimize reabsorption effects of the dyes. Quantum yields are determined using the following equation, ϕs=ϕr(Fs/Fr)×(Ar/As)×(ns^2/nr^2)
Where, ϕr and ϕs are the quantum yield of reference and sample respectively, Fr and Fs are the integrated intensities (areas) of standard and sample spectra, nr and ns are the refractive indices of the reference and sample solution, Ar and As are the absorbance intensities of reference and sample respectively.

[5] = system: (D1)mix; test: Binding constant from fluorescence titration; conditions: non-linear single-binding mode curve fitting
Experimental: (§1) To determine the binding stoichiometry of QCy-DT with Drew-AT, continuous variation method is employed, varying the ligand concentrations to generate the Job plot by fixing the total concentration of [QCy-DT+Drew-AT] at 2 μM. […] The binding constants of [QCy-DT+DNA] complexes are calculated from the fluorescence titration experiments using non-linear (single-binding mode) curve fitting analysis. […] Next, the fluorescence quantum yield of QCy-DT is estimated in the presence of AT- and GC-rich DNA duplexes (Table 3) as follows: […]

[6] = system: Drew-AT; test: Binding constant from fluorescence titration; conditions: non-linear single-binding mode curve fitting
Experimental: as §1

[7] = system: (A-T)20; test: Binding constant from fluorescence titration
Experimental: as §1

Stokes shift in presence of DNA [1]: 86 nm | Quantum Yield (ΦF) ([4]; Glycerol): ~0.07 | Quantum Yield (ΦF) ([4]; Tris-HCl buffer 100 mM, pH 7.4, probe alone): 0.0039 | binding affinity Ka [5]: 430000 M⁻¹ | binding affinity Ka [6]: 1.5e+06 M⁻¹ | binding affinity Ka ([7]; non-linear single-binding mode curve fitting): 2.9e+06 M⁻¹ | binding affinity for (A-T)20 higher than for Drew-AT ([7]; ratio of Ka): 2 fold
Structure (SMILES): C[n+]1c(/C=C/c2ccc(O)c(/C=C/c3sc4ccccc4[n+]3C)c2)sc2ccccc21 [QCy-DT, quinone cyanine-dithiazole]
parasite staining [2]: specifically stain the parasite nuclei | cellular uptake / nuclear staining [3]: selective staining of the cell nucleus
